Results taken from publication PMC11597817, “Modulation of Multispecific Transporters by Uncaria tomentosa Extract and Its Major Phytoconstituents” (Pharmaceutics, 2024).
Read-outs that look alike come from different tables or passages of the source.

Biological target: T1, BCRP (Homo sapiens, UniProt Q9UNQ0)
T1 construct: The cDNA encoding respective transporters were synthetized and cloned by GenScript; host or cells: HEK293 (lentiviral transduction), membrane vesicles
T1 sequence (Q9UNQ0 1-655): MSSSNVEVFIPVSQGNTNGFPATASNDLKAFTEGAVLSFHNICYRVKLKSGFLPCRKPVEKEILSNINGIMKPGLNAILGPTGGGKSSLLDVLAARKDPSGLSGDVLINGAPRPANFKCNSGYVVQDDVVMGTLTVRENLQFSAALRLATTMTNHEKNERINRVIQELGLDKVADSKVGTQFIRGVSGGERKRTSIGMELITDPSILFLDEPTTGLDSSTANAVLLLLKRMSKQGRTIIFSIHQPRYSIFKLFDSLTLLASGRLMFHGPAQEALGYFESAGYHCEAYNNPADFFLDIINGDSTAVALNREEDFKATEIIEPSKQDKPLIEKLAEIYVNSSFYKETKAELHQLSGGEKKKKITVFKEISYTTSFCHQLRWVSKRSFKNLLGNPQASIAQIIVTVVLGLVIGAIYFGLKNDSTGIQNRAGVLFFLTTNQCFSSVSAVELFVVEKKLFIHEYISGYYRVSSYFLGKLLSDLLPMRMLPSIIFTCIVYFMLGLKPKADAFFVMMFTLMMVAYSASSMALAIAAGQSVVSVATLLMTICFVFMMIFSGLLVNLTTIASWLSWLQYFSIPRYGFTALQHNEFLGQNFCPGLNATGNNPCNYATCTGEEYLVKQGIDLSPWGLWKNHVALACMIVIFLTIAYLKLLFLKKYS
Experiment: Vesicular transport inhibition assay, BCRP membrane vesicles
Assay type: biochemical
Settings: for Igut/IC50 ratio: BCRP, Igut = dose/250 mL, 500 mg dose of UT extract, ICH M12 cut-off 10; for IC50: oxindole alkaloids, substrate E3S, read-out: IC50 (95% CI of IC50)
Excerpt: The human embryonic kidney 293 (HEK293) cell line was purchased from Invitrogen/ThermoFisher (Waltham, MA, USA). Madin–Darby canine kidney II (MDCKII) wild type cells were obtained from the European Collection of Authenticated Cell Cultures (ECACC catalog no. 00062107). HEK293 cells overexpressing the human uptake OATP1B1 (NCBI Reference Sequence: NM_006446.4), OATP1B3 (NM_019844), OATP2B1 (NM_007256), OATP1A2 (NM_134431), OAT1-3 (BC033682.1; NM_006672.3; BC022387), OCT1-3 (BC126364.1; NM_003058; NM_021977), OCTN1 (NM_003059.3), NTCP (NM_003049.3), MATE1 (NM_018242.3), MATE2K (NM_001099646.2), ENT4 (NM_001040661.1), SGLT2 (AJ133127.1), ASCT1/2 (NM_003038.5; NM_005628.3), LAT1/2 (NM_003486.6; NM_012244.4), and THTR1/2 (NM_006996; NM_025243) and mock and human efflux BCRP (NM_004827.2), BSEP (NM_003742.2), MDR1 (NM_000927.4), and MRP1-5 (NM_004996; NM_000392.4; BC137347.1; NM_005845.4; NM_005688.2) transporters as well as MDCKII overexpressing human ENT1/2 (NM_001078177; NM_001532.2) and URAT1 (BC053348) transporters were created by lentiviral transduction. The cDNA encoding respective transporters were synthetized and cloned by GenScript (Piscataway, NJ, USA). The production of lentivirus supernatants, the transduction of the cells, cloning, functional characterization, and validation were performed by Charles River Laboratories Hungary Kft. (Budapest, Hungary).
Membrane vesicles were prepared from ABC transporter-overexpressing HEK293 cells by Charles River Laboratories Hungary Kft. as described previously in detail. Vesicles were frozen in liquid nitrogen and stored at −80 °C.
Vesicular transport inhibition assays were performed using a rapid filtration technique. In brief, the appropriate amount of the protein of each membrane vesicle was mixed with either the extract or isopteropodine, mitraphylline, or uncarine D at one concentration or with their half dilution series from 150 µg/mL or from 100 µM, the suitable transporter substrate, and the assay buffer on ice. Reaction mixtures were preincubated for 15 min at 37 °C with shaking at 250 rpm. Following preincubation, 4 mM Mg-ATP or AMP was added and incubated according to Table S3. Vesicular transport was terminated by adding an ice-cold washing buffer, and the reaction mix was transferred to a MSFBN6B10 filter plate (Merck) for filtration. The filter plates were then dried at 40 °C for 4 h, and radiolabeled substrates retained in the vesicles were detected by liquid scintillation counting as described above. For fluorescent substrates, accumulation was measured with a Clariostar^plus microplate reader (BMG Labtech GmbH, Ortenberg, Germany).
The transporter-mediated uptake and ATP-dependent transport were determined by subtracting the activity of the control cell/transporter abundant-membrane in the presence of AMP from the activity of the transporter-overexpressing cell/transporter-abundant membrane in the presence of ATP. The relative transporter-specific accumulation was expressed as the percent of DMSO activity. The results were presented as the mean ± SEM from 3 parallels. More than a 20% reduction in transport activity was considered as inhibition. For the IC50 determination, dose–response curves were fitted using a 4-parameter nonlinear model in GraphPad Prism version 9.0. Confidence intervals (CIs) of 95% were also determined.
Table S3 – Vesicular transport inhibition assay details.
These parameters were set during previous validations. TC: taurocholic acid, E3S: estrone 3 -sulfate, […]

SMILES	Igut/IC50 ratio	Igut/IC50 ratio (listed as Isopteropodine)	IC50 (listed as Isopteropodine) [µM]	IC50 [µM]
COC(=O)C1=CO[C@@H](C)[C@@H]2CN3CC[C@@]4(C(=O)Nc5ccccc54)[C@@H]3C[C@H]12 [isopteropodine]	< 10	0.42	54.6	54.6
COC(=O)C1=CO[C@@H](C)[C@H]2CN3CC[C@]4(C(=O)Nc5ccccc54)[C@@H]3C[C@H]12 [mitraphylline]	< 10			
